Target: T1, c-Kit (Homo sapiens, UniProt P10721)
T1 construct: whole cytoplasmic domain of c-Kit (aa 544-976); made in house; host or cells: Sf9 or High Five (baculovirus)
Assay: c-kit kinase inhibition
Type: biochemical
Conditions: Table 4

T1 sequence (P10721 544-976): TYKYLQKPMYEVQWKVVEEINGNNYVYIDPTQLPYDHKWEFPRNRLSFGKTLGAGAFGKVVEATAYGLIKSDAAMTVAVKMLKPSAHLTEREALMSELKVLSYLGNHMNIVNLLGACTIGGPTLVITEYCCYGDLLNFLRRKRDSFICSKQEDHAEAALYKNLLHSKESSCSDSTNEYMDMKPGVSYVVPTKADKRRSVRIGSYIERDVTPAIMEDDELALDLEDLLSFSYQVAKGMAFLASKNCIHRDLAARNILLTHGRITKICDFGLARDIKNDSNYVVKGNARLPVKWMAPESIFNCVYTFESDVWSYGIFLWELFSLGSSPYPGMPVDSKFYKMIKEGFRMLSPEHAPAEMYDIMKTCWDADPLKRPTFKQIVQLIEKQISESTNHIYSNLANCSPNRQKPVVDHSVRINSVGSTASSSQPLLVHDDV

SMILES | IC50 [µM]
CN1CCN(c2ccc(-c3cnn4c(N)c(-c5ccsc5)cnc34)cc2)CC1 [Example 21, 3-[4-(4-Methyl-piperazin-1-yl)-phenyl]-6-thiophen-3-yl-pyrazolo[1,5-a]pyrimidin-7-ylamine] | < 10
COc1cccc(-c2cnc3c(-c4cccc(N5CCN(C)CC5)c4)cnn3c2N)c1 [Example 24, 6-(3-Methoxy-phenyl)-3-[3-(4-methyl-piperazin-1-yl)-phenyl]-pyrazolo[1,5-a]pyrimidin-7-ylamine] | < 10

— US20090099167A1, “Organic compounds” (Novartis Institutes for Biomedical Research, priority 2004, published 2009)
